# Reference: patent US11198741B2, “Medicines for topic use based on sulfated hyaluronic acid as activating or inhibiting agent of the cytokine activity” (Fidia Farmaceutici S.p.A., priority 2009, dated 2021)
# Target: T1, IL-1 receptor (Mus musculus, UniProt P13504)
# T1 construct: the line of murine fibroblasts 3T3 was used, sensitive to the cytotoxic activity of IL-1, expressing its relative receptor; endogenous in cells; host or cells: 3T3 murine fibroblasts (whole cells)
# T1 sequence (P13504 20-576): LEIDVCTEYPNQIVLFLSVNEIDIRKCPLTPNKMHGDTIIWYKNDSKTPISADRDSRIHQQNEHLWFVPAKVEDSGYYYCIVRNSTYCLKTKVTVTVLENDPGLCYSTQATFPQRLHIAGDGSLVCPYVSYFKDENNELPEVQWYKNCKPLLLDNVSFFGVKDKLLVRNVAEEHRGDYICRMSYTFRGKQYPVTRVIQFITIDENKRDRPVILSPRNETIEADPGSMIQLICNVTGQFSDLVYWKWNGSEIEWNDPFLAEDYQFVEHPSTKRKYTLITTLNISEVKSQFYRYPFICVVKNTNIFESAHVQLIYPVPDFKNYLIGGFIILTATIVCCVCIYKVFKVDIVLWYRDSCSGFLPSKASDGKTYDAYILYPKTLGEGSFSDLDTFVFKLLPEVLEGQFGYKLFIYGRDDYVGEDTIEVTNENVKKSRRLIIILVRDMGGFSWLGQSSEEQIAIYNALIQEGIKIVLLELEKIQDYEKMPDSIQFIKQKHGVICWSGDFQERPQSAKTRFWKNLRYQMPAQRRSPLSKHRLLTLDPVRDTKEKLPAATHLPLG
# Assay: Inhibition of the binding of 125I-IL-1 to its receptor in 3T3 fibroblasts (Radioligand Binding)
# Details: 3T3 cells of mouse, 125I-IL-1 10 pM, sample 1 mg/ml, 37° C. 2 hours; both medium and low MW
# Text: These experiments were effected to evaluate the effectiveness of the samples tested (prepared according to Examples 1-3 and 4) on the capacity of inhibiting the binding of IL-1 to its receptor expressed by 3T3 cells of mouse, normally used in vitro for this type of experiment, carried out with iodinated cytokine components for an evaluation in Radioligand Binding assays. The experimental procedure was effected as described in Chin J et al., J Exp Med, 1987, 165:70-86. In short, the line of murine fibroblasts 3T3 was used, sensitive to the cytotoxic activity of IL-1, expressing its relative receptor. […] At the end of the incubation, the cells were washed with phosphate buffer, then dissolved in 2.5 M of NaOH and counted in a γ-counter.
substance,measurement,value
sulfated hyaluronic acid degree 3 [HAS3],inhibition of the binding of IL-1 to its receptor,30%
